Experimental data: patent US5608081A, “Hydroxymethylpolythiophene derivatives” (Industrial Technology Research Institute, priority 1995, dated 1997)

Test: Anti-edema activity, conventional toe edema method using carrageenan as pyrogen and indomethacin as control inhibitory agent
Format: in vivo
Conditions: inhibition rate above 30% considered also antiinflammatory
Procedure: The anti-edema activity was tested according to the conventional toe edema method using carrageenan as pyrogen and indomethacin as control inhibitory agent. See C. A. Winter, E. A. Risley and G. W. Nuss, Biol. Med., 111, 544 (1962); and A. P. Roszkowshi, W. H. Rooks II, A. J. Tomolonis and L. M. Miller, J. Pharmacol. Exp. Ther., 179, 114 (1971), both of which are hereby incorporated by reference.
In general, polythiophene derivatives of this invention have shown significant anti-edema activity.

OCc1ccc(-c2ccc(CO)s2)s1
Anti-edema effect, inhibition rate (dosage 10 mg/kg): 26% | Anti-edema effect, inhibition rate (dosage 50 mg/kg): 34% | Anti-edema effect, inhibition rate (dosage 100 mg/kg): 37% | Anti-edema effect, inhibition rate (dosage 200 mg/kg): 41%

CC(=O)OCc1ccc(-c2ccc(COC(C)=O)s2)s1
Anti-edema effect, inhibition rate (dosage 50 mg/kg): 17% | Anti-edema effect, inhibition rate (dosage 100 mg/kg): 28% | Anti-edema effect, inhibition rate (dosage 200 mg/kg): 28%

OCCC#Cc1ccc(-c2cccs2)s1
Anti-edema effect, inhibition rate (dosage 50 mg/kg): 32% | Anti-edema effect, inhibition rate (dosage 100 mg/kg): 36% | Anti-edema effect, inhibition rate (dosage 200 mg/kg): 38%
